Among the data in the supplement of paper PMC10307832 are relative viability values, retold here.

Holding throughout (experiment): relative viability (nuclei count vs DMSO), 5 days (fraction); higher = more cells survive
Compound in assay [1]: O=C(Nc1cccc(C(F)(F)F)c1)Nc1cc(S(=O)(=O)NC2CC2)ccc1-c1ccsc1 [AGI-6780] + N=C(N)NC(=N)NCCc1ccccc1 [Phenformin] (partner 250 µM)
In a few lines: (§1)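 Lung cancer cell lines were seeded in 1536-well plates and dosed by pin tool the next day, with either a single drug or a fixed anchor-drug dose combined with five library-drug doses (not always all listed) spaced in √10 steps. Five days later, one step fixed the cells and stained their nuclei (final 0.05% Triton X-100, 1% formaldehyde, 1 ug/ml Hoechst), and nuclei were counted on 4× images. Relative viability is the nuclei count in treated wells divided by the count in vehicle wells, and each value is the median of duplicate plates.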

Compound in assay [2]: O=C(Nc1cccc(C(F)(F)F)c1)Nc1cc(S(=O)(=O)NC2CC2)ccc1-c1ccsc1 [AGI-6780] + CS(=O)(=O)N1CCN(Cc2cc3nc(-c4cccc5[nH]ncc45)nc(N4CCOCC4)c3s2)CC1 [Pictilisib] (partner 1 µM)
In a few lines: as §1

Compound in assay [3]: O=C(Nc1cccc(C(F)(F)F)c1)Nc1cc(S(=O)(=O)NC2CC2)ccc1-c1ccsc1 [AGI-6780] + CC(=O)c1c(C)c2cnc(Nc3ccc(N4CCNCC4)cn3)nc2n(C2CCCC2)c1=O [Palbociclib] (partner 0.5 µM)
The method in brief: as §1

Compound in assay [4]: O=C(Nc1cccc(C(F)(F)F)c1)Nc1cc(S(=O)(=O)NC2CC2)ccc1-c1ccsc1 [AGI-6780] + Nc1ncn([C@H]2C[C@H](O)[C@@H](CO)O2)c(=O)n1 [Decitabine] (partner 2 µM)
The method in brief:
as §1

Take COR-L23: the relative viability in assay [1] (first compound 0.08 µM) was 0.457; in assay [1] (first compound 0.253 µM), 0.489; in assay [1] (first compound 0.8 µM), 0.424; in assay [1] (first compound 2.53 µM), 0.408; in assay [1] (first compound 8 µM), 0.506; in assay [2] (first compound 0.08 µM) it was 0.772. The relative viability in assay [2] (first compound 0.253 µM) turned out to be 0.755; in assay [2] (first compound 0.8 µM), 0.702; in assay [2] (first compound 2.53 µM), 0.66; in assay [2] (first compound 8 µM) it was 0.827; in assay [3] (first compound 0.08 µM) it was 0.322; in assay [3] (first compound 0.253 µM), 0.257. Also, the relative viability in assay [3] (first compound 0.8 µM) stood at 0.298; in assay [3] (first compound 2.53 µM), 0.277; in assay [3] (first compound 8 µM), 0.329; in assay [4] (first compound 0.08 µM), 0.449; in assay [4] (first compound 0.253 µM), 0.455; in assay [4] (first compound 0.8 µM), 0.477. Also, the relative viability in assay [4] (first compound 2.53 µM) turned out to be 0.399; in assay [4] (first compound 8 µM), 0.416.
With NCI-H1755, the relative viability came out at 0.637 in assay [1] (first compound 0.08 µM); 0.683 in assay [1] (first compound 0.253 µM); 0.611 in assay [1] (first compound 0.8 µM); 0.576 in assay [1] (first compound 2.53 µM); 0.633 in assay [1] (first compound 8 µM); 0.445 in assay [2] (first compound 0.08 µM). Also, the relative viability in assay [2] (first compound 0.253 µM) was found to be 0.467; in assay [2] (first compound 0.8 µM), 0.408; in assay [2] (first compound 2.53 µM), 0.368; in assay [2] (first compound 8 µM), 0.441; in assay [3] (first compound 0.08 µM), 0.452; in assay [3] (first compound 0.253 µM), 0.463. Moreover, the relative viability worked out at 0.426 in assay [3] (first compound 0.8 µM); 0.433 in assay [3] (first compound 2.53 µM); 0.419 in assay [3] (first compound 8 µM); 0.718 in assay [4] (first compound 0.08 µM); 0.758 in assay [4] (first compound 0.253 µM); 0.691 in assay [4] (first compound 0.8 µM). For the same cell line, the relative viability in assay [4] (first compound 2.53 µM) came out at 0.604; in assay [4] (first compound 8 µM) it was 0.689.
Regarding NCI-H322M, the relative viability is 0.755 in assay [1] (first compound 0.08 µM); 0.788 in assay [1] (first compound 0.253 µM); 0.816 in assay [1] (first compound 0.8 µM); 0.808 in assay [1] (first compound 2.53 µM); 0.85 in assay [1] (first compound 8 µM); 0.518 in assay [2] (first compound 0.08 µM). Also, the relative viability worked out at 0.572 in assay [2] (first compound 0.253 µM); 0.526 in assay [2] (first compound 0.8 µM); 0.585 in assay [2] (first compound 2.53 µM); 0.524 in assay [2] (first compound 8 µM); 0.516 in assay [3] (first compound 0.253 µM); 0.446 in assay [3] (first compound 0.8 µM). For the same cell line, the relative viability in assay [3] (first compound 2.53 µM) was determined as 0.434; in assay [3] (first compound 8 µM), 0.499; in assay [4] (first compound 0.253 µM), 0.799; in assay [4] (first compound 0.8 µM), 0.68; in assay [4] (first compound 2.53 µM), 0.612; in assay [4] (first compound 8 µM) it was 0.708.
On to COR-L 105, for which the relative viability in assay [1] (first compound 0.08 µM) was found to be 0.407; in assay [1] (first compound 0.253 µM), 0.461; in assay [1] (first compound 0.8 µM) it was 0.507; in assay [1] (first compound 2.53 µM), 0.524; in assay [1] (first compound 8 µM) it was 0.539; in assay [2] (first compound 0.08 µM), 0.482. The relative viability in assay [2] (first compound 0.253 µM) amounted to 0.393; in assay [2] (first compound 0.8 µM), 0.463; in assay [2] (first compound 2.53 µM) it was 0.463; in assay [2] (first compound 8 µM), 0.39; in assay [3] (first compound 0.08 µM), 0.395; in assay [3] (first compound 0.253 µM), 0.301. Also, the relative viability in assay [3] (first compound 0.8 µM) is 0.417; in assay [3] (first compound 2.53 µM), 0.371; in assay [3] (first compound 8 µM), 0.37; in assay [4] (first compound 0.08 µM) it was 0.602; in assay [4] (first compound 0.253 µM) it was 0.89; in assay [4] (first compound 0.8 µM) it was 0.649. The figures for the relative viability in assay [4] (first compound 2.53 µM) and in assay [4] (first compound 8 µM) were 0.655 and 0.713, respectively.
For the cell line HCC-827, the relative viability worked out at 0.423 in assay [1] (first compound 0.08 µM); 0.39 in assay [1] (first compound 0.253 µM); 0.413 in assay [1] (first compound 0.8 µM); 0.395 in assay [1] (first compound 2.53 µM); 0.376 in assay [1] (first compound 8 µM); 0.896 in assay [2] (first compound 0.08 µM). Also, the relative viability was 0.916 in assay [2] (first compound 0.253 µM); 1.03 in assay [2] (first compound 0.8 µM); 0.856 in assay [2] (first compound 2.53 µM); 0.823 in assay [2] (first compound 8 µM); 0.485 in assay [3] (first compound 0.08 µM); 0.488 in assay [3] (first compound 0.253 µM). Moreover, the relative viability turned out to be 0.478 in assay [3] (first compound 0.8 µM); 0.466 in assay [3] (first compound 2.53 µM); 0.481 in assay [3] (first compound 8 µM); 0.331 in assay [4] (first compound 0.08 µM); 0.314 in assay [4] (first compound 0.253 µM); 0.39 in assay [4] (first compound 0.8 µM). Moreover, the figures for the relative viability in assay [4] (first compound 2.53 µM) and in assay [4] (first compound 8 µM) were 0.29 and 0.336, respectively.
Regarding NCI-H2087, the relative viability was found to be 0.5 in assay [1] (first compound 0.08 µM); 0.502 in assay [1] (first compound 0.253 µM); 0.471 in assay [1] (first compound 0.8 µM); 0.438 in assay [1] (first compound 2.53 µM); 0.492 in assay [1] (first compound 8 µM); 0.787 in assay [2] (first compound 0.08 µM). Besides, the relative viability in assay [2] (first compound 0.253 µM) came out at 0.914; in assay [2] (first compound 0.8 µM), 0.879; in assay [2] (first compound 2.53 µM), 0.644; in assay [2] (first compound 8 µM), 0.773; in assay [3] (first compound 0.08 µM), 0.244; in assay [3] (first compound 0.253 µM), 0.265. Further, the relative viability in assay [3] (first compound 0.8 µM) was found to be 0.221; in assay [3] (first compound 2.53 µM), 0.25; in assay [3] (first compound 8 µM), 0.245; in assay [4] (first compound 0.08 µM), 0.329; in assay [4] (first compound 0.253 µM), 0.272; in assay [4] (first compound 0.8 µM), 0.326. For the same cell line, the relative viability in assay [4] (first compound 2.53 µM) stood at 0.243; in assay [4] (first compound 8 µM) it was 0.235.
